Experimental data from patent publication US8058233B2, “Modification of feeding behavior using PYY and GLP-1” (Oregon Health and Science University, priority 2002, dated 2011).
No end group written: not given here.

What was measured:
[1] = test system: POMC neurons; assay: Whole cell recordings from fluorescent POMC-EGFP neurons in ARC slices (Example 2); format: cell-based, mouse
[2] = Co-administration of PYY3-36 and GLP-1 by intravenous infusion in humans, free buffet meal; format: in vivo, human
Text: 10 healthy volunteers (4 men and 6 women) having a mean age of 24.7 (±0.8) years and a mean BMI of 22.7 (±0.6) kg/m^2 were recruited. The volunteers were asked to fast and to drink only water from 9 pm on the night preceding all study days. Each volunteer attended for four study days. The volunteers arrived at 9.30 am and the venflons were inserted.
The study was double blinded. GLP-1 is i.e. GLP-1 (7-36) amide

[3] = Intracerebroventricular GLP-1 in rats; format: in vivo, rat
Text: This effect is blocked by the specific GLP-1 receptor antagonist, exendin 9-39. GLP-1 receptors are found in the brainstem, arcuate nucleus and PVN. Following ICV GLP-1 administration, c-fos is expressed in the arcuate nucleus and PVN.

[4] = 1-hour food intake after IP GLP-1 with intra-arcuate exendin 9-39 in non-fasted rats; format: in vivo, rat; settings: GLP-1 25 nmol/kg, exendin 9-39 20 nmoles/kg, FIG. 11
Description: GLP-1 i.e. GLP-1 (7-36) amide (25 nmol/kg) or saline (control) was administered parenterally to non-fasted rats prior to the onset of the dark phase. Exendin 9-39 (20 nmoles/kg) or saline (control) injected into the arcuate nucleus of non-fasted rats. Food intake one hour later was measured.

[5] = test system: non-fluorescent ARC neurons; assay: Recordings from adjacent non-fluorescent ARC neurons; format: cell-based, mouse; settings: 13 cells tested

Substance: CTAP
- effect on the current induced by Met-Enk in POMC cells ([1]; CTAP 1 μM, Met-Enk 30 μM, n=3): completely prevented

Substance: D-Trp^8-γMSH
- increase in frequency of GABAergic IPSCs in POMC neurons ([1]; 7 nM, 3 of 4 POMC neurons): 280±90%
- hyperpolarization of POMC neurons ([1]; 7 nM, 9 of 15 POMC neurons): −5.5±2.4 mV

Substance: GLP-1 (7-36) amide (HAEGTFTSDVSSYLEGGAAKEFIAWLVKGR-NH2)
- Food intake from free buffet meal, mean ([2]; IV infusion 0.4 pmol/kg/min for 120 minutes (90 minutes pre-meal), 10 volunteers, saline 997): 950 kcal
- % reduction from saline ([2]; IV infusion 0.4 pmol/kg/min for 120 minutes, free buffet meal): 5%
- food intake after ICV administration [3]: potently inhibits food intake
- effect of IP GLP-1 on 1-hour food intake with exendin 9-39 in the arcuate nucleus [4]: not influenced by the presence of concomitant exendin 9-39

Substance: exendin 9-39
- effect on inhibition of food intake by ICV GLP-1 [3]: blocked

Substance: leptin: leptin, hormone applied to POMC cells in slice preparations
- effect on membrane potential of non-fluorescent ARC cells [5]: had no effect on 5 of 13 adjacent non-fluorescent cells tested (FIG. 3e), while it hyperpolarized 5 (FIG. 3f) and depolarized 3 other non-POMC neurons
- decrease in frequency of GABAergic IPSCs in POMC cells ([1]; 100 nM, in 5 out of 15 cells): 25%
- depolarization of POMC cells, mean±SEM ([1]; 100 nM, n=45): 9.7±1.2 mV
- time to depolarization of POMC cells ([1]; 0.1-100 nM): 2 to 10 min
- depolarization of POMC cells ([1]; 0.1-100 nM, 72 of 77 POMC cells): 3-30 mV

Substance: met-enkephalin
- time to hyperpolarization of POMC cells ([1]; 30 μM): 35 to 40 s
- hyperpolarization of the membrane potential of POMC cells ([1]; 30 μM, n=10, reversible): 10-20 mV

Substance: neuropeptide Y [NPY]
- hyperpolarization of POMC neurons, average ([1]; n=3): 9±6 mV
